Reference: patent US20240041991A1, “STABLE LIQUID DISPERSINB COMPOSITIONS” (KANE BIOTECH INC., priority 2020, published 2024)
Where two headings read alike, the source gives them in different places. Marks after values point to notes of the source that are not given here.

What was measured:
DispersinB [1] = assay type: biochemical, Aggregatibacter actinomycetemcomitans; conditions: 50 mM citrate buffer pH 5.9, salt concentration as in label, control with no salts = 100%
Description: Activity of the control sample with no salts was considered 100%.

DispersinB [2] = conditions: 50 mM citrate buffer pH 5.9, 100 mM K2SO4 sample = 100%
DispersinB [3] = conditions: 50 mM Citrate, 100 mM NaCl pH 5.9 control = 100%
Description: DispersinB enzyme solutions (100 μg/ml) were prepared in 50 mM citrate buffer, containing 200 mM K2SO4. The pH was adjusted (5.4 to 5.9). DispersinB enzymatic activity was measured using β-N-Acetylglucosaminidase assay kit from Sigma (product code CS0780) in 96-well microtiter plate following the manufacturer's instructions. The data was represented as % enzymatic activity in comparison to enzyme activity of control sample that contained 100 μg/ml DispersinB in 50 mM citrate buffer (pH 5.9) containing 100 mM NaCl Activity of the control sample was considered 100%.

DispersinB [4] = assay type: biochemical, Aggregatibacter actinomycetemcomitans; conditions: 50 mM citrate buffer pH 5.9, 100 mM NaCl, levulinic acid % as in label, control = 100%
Description: DispersinB enzyme (100 μg/ml) solutions in 50 mM citrate buffer (pH 5.9), 100 mM NaCl containing Levulinic acid (0.25%-2%) were tested for DispersinB enzymatic activity following β-N-Acetylglucosaminidase assay.

O=S(=O)([O-])[O-].[K+].[K+] [K2SO4, potassium sulfate]
% enzymatic activity of DispersinB (Mean) (DispersinB [1]; listed as 100 mM K2SO4): 211* % | % enzymatic activity of DispersinB (Mean) (DispersinB [1]; listed as 200 mM K2SO4): 289* % | % Activity (DispersinB [2]; 100 mM K2SO4): 100% | % Activity (DispersinB [2]; 150 mM K2SO4): 143* % | % Activity (DispersinB [2]; 200 mM K2SO4): 149* % | % Activity (DispersinB [2]; 250 mM K2SO4): 159* % | % Activity (DispersinB [2]; 300 mM K2SO4): 141* % | % Activity (DispersinB [3]; pH 4): 11.06^ab % | % Activity (DispersinB [3]; pH 4.2): 22.55^ab % | % Activity (DispersinB [3]; pH 4.4): 34.17^ab % | % Activity (DispersinB [3]; pH 4.6): 57.21 ^ab % | % Activity (DispersinB [3]; pH 4.8): 81.09 ^ab % | % Activity (DispersinB [3]; pH 5): 118.00 ^ab % | % Activity (DispersinB [3]; pH 5.1): 133.61 ^ab % | % Activity (DispersinB [3]; pH 5.2): 149.86 ^ab % | % Activity (DispersinB [3]; pH 5.3): 142.65 ^ab % | % Activity (DispersinB [3]; pH 5.4): 162.25^a % | % Activity (DispersinB [3]; pH 5.5): 172.83^a % | % Activity (DispersinB [3]; pH 5.6): 166.67^a % | % Activity (DispersinB [3]; pH 5.7): 154.62^a % | % Activity (DispersinB [3]; pH 5.8): 146.99 ^ab % | % Activity (DispersinB [3]; pH 5.9): 143.77 ^ab % | % Activity (DispersinB [3]; pH 6): 130.81 ^ab %

CC(=O)CCC(=O)O [Levulinic acid, 4-oxopentanoic acid]
% enzymatic activity of DispersinB (Mean) (DispersinB [4]; listed as 0.25% Levulinic acid): 103* % | % enzymatic activity of DispersinB (Mean) (DispersinB [4]; listed as 0.5% Levulinic acid): 102% | % enzymatic activity of DispersinB (Mean) (DispersinB [4]; listed as 1% Levulinic acid): 104% | % enzymatic activity of DispersinB (Mean) (DispersinB [4]; listed as 2% Levulinic acid): 104* % | % enzymatic activity of DispersinB (Mean) (DispersinB [4]; listed as 3% Levulinic acid): 109* % | % enzymatic activity of DispersinB (Mean) (DispersinB [4]; listed as 4% Levulinic acid): 109* % | % enzymatic activity of DispersinB (Mean) (DispersinB [4]; listed as 5% Levulinic acid): 114* %
